{"source": "patent US12594284B2", "about": "“Combination of micronutrients to stimulate the endogenous production of hydrogen sulfide (H2S)” (priority 2020, dated 2026)", "key": {"reductive stress": {"tested_on": "reductive stress", "assay": "Reductive stress induced by vitamin C in healthy male subjects (plasma NADH, erythrocyte GSH)", "type": "in vivo, human", "conditions": "vitamin C 2 gr per day alone, 1 week", "description": "Vitamin C caused a subclinical reductive stress as reported by a 40% increase of plasma NADH and 31% and 63% increase of erythrocyte GSH and GSH to GSSG ratio, respectively. […] Thus, the aforementioned composition prevented the reductive stress induced by a powerful reducing agent."}, "[1]": {"tested_on": "endogenous production of H2S (CBS, CSE, 3MST)", "assay": "Inventor's observations on administration of the micronutrients to humans (H2S production markers, redox, homocysteine, insulin resistance)", "type": "in vivo, human", "conditions": "for triggering of the H2S system by form of vitamin B6: subjects possibly with genetic weakness of vitamin B6 activation and recycling"}, "[2]": {"tested_on": "endogenous production of H2S (CBS, CSE, 3MST)", "conditions": "subjects with chronically low-vitamin B6 status; cited from earlier work"}, "[3]": {"tested_on": "blood pressure of pre-hypertensive patients", "conditions": "cited from earlier work"}, "[4]": {"conditions": "taurine 1.6 gr per day, 12 weeks"}, "[5]": {"conditions": "taurine added to L-cystine supplementation"}, "[6]": {"conditions": "vitamin B6 added to taurine and L-cystine supplementation"}}}
{"smiles": "O=C1O[C@H]([C@@H](O)CO)C(O)=C1O", "note": "[Vitamin C, vitamin C]", "values": [{"measurement": "increase of GSH to GSSG ratio", "setting": "reductive stress", "result": 63, "unit": "%"}, {"measurement": "increase of erythrocyte GSH", "setting": "reductive stress", "result": 31, "unit": "%"}, {"measurement": "increase of plasma NADH", "setting": "reductive stress", "result": 40, "unit": "%"}]}
{"smiles": "N[C@@H](CS)C(=O)O", "note": "[cysteine]", "values": [{"measurement": "H2S levels", "setting": "[1]; isolated cysteine administration", "result": "fail to increase H2S levels"}]}
{"smiles": "Cc1ncc(COP(=O)(O)O)c(C=O)c1O", "note": "[pyridoxal-5-phosphate]", "values": [{"measurement": "triggering of the H2S system by form of vitamin B6", "setting": "[1]", "result": "responded normally"}]}
{"smiles": "Cc1ncc(CO)c(CO)c1O", "note": "[pyridoxine, reference compound]", "values": [{"measurement": "triggering of the H2S system by form of vitamin B6", "setting": "[1]", "result": "failed to trigger the system in some subjects"}, {"measurement": "plasma concentrations of lanthionine and homolanthionine", "setting": "[2]", "result": "did not respond"}]}
{"smiles": "NCCS(=O)(=O)O", "note": "[taurine]", "values": [{"measurement": "expression of CBS and CSE", "setting": "[3]; human, in vivo", "result": "induced the expression of CBS and CSE"}, {"measurement": "circulating H2S", "setting": "[3]; [4]", "result": "increase of circulating H2S"}, {"measurement": "reduction of diastolic blood pressure", "setting": "[3]; [4]", "result": 3.4, "unit": "mm Hg"}, {"measurement": "reduction of systolic blood pressure", "setting": "[3]; [4]", "result": 4.6, "unit": "mm Hg"}, {"measurement": "daily amounts that do not produce any further added effect", "setting": "[1]; [5]", "result": "> 2000", "unit": "mg"}, {"measurement": "daily dose at which increased H2S production compared to L-cystine alone is already measured", "setting": "[1]; [5]", "result": 100, "unit": "mg per day"}]}
{"smiles": "Cc1ncc(CO)c(CO)c1O.Cl", "note": "[vitamin B6]", "values": [{"measurement": "CSE activity", "setting": "[1]; supra-physiological amounts of vitamin B6", "result": "effective in activating CSE activity"}, {"measurement": "daily amounts that do not produce any further added effect", "setting": "[1]; [6]", "result": "> 100", "unit": "mg"}, {"measurement": "daily dose at which increased H2S production compared to L-cystine and taurine is already measured", "setting": "[1]; [6]", "result": 2, "unit": "mg per day"}]}
